Among the data in PubChem BioAssay (NCI) are TGI and GI50 values, retold here.

Common to all, as to test: growth of human tumour cells (NCI), 48 h
Assay [1] has as its system M14 melanoma.
Assay [2] has as its system HCC-2998 colon.
Assay [3] has as its system MDA-MB-231 breast.
In assay [4] the test system is BT-549 breast.
Assay [5] deals with NCI/ADR-RES ovarian.
Assay [6] has as its system CAKI-1 renal.
Assay [7] concerns RXF 393 renal.
In assay [8] the test system is ACHN renal.
The subject of assay [9] is MCF7 breast.
The subject of assay [10] is SW-620 colon.
In assay [11] the test system is A549 NSCLC.

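1) Cells in 96-well plates. 2) Compound, 48 h, 5 concentrations. 3) Linear interpolation between surrounding doses. 4) Unreached endpoint = highest concentration. At the GI50, growth is halved. At the TGI there is no net growth.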 Bounds are passed on as bounds.

For the molecule `CC1(C)[C@@H]2C[C@H]1c1cnc(-c3ccccn3)cc1C2CCCCC[C@@H]1c2cc(-c3ccccn3)ncc2[C@@H]2C[C@H]1C2(C)C` (some centres undefined), the TGI was above 22.1 µM in assay [1]; above 100 µM in assay [2]; 89 µM in assay [3]; above 100 µM in assay [4]; above 100 µM in [5]; above 30.3 µM in assay [6]. Further, the TGI in [7] was 45.5 µM; in assay [8], above 100 µM; in assay [9], above 100 µM; in assay [10] it was above 100 µM; in assay [11], above 36.7 µM.

Consider `CC1=C(C(=O)N[C@@H](CC(C)C)C(=O)O)N2C(=O)[C@@H](NC(=O)C(N)c3ccccc3)[C@H]2SC1` (some centres undefined), for which the TGI in assay [1], in assay [2], in assay [3], in assay [4], in assay [5] and in [6] was above 100 µM throughout. Further, the TGI in assay [7], in assay [8], in assay [9], in assay [10] and in assay [11] was above 100 µM throughout.

Take `O=C1CC(=O)NC(=NNS(=O)(=O)c2ccc(Cl)cc2)N1`: the TGI in assay [1], in [2], in [3], in [4], in assay [5] and in assay [6] was above 100 µM each time. Further, the TGI in assay [7], in assay [8], in [9], in [10] and in [11] was above 100 µM in each case.

Turning to `Cc1ccc(C(=O)N/N=C(\N=Nc2ccc(C(=O)O)cc2)c2ccc(N(CCC#N)CCC#N)cc2C)cc1`, the TGI in assay [1], in assay [2], in assay [3], in assay [4], in assay [5] and in assay [6] was above 100 µM in each case. Besides, the TGI in [7], in [8], in [9], in assay [10] and in [11] was above 100 µM throughout.

Take `CCOC(=O)c1c(NC(=S)Nc2ccccc2)sc2c1CCOC2`: the TGI in assay [1] was above 100 µM; in assay [2] it was above 100 µM; in assay [3], above 100 µM; in [4] it was 58 µM; in assay [5], above 100 µM; in [6] it was above 100 µM. Further, the TGI in [7], in assay [8], in [9], in [10] and in assay [11] was above 100 µM in each case.

With `CN(C)c1ccc(C=C2C(=O)NC(=S)NC2=O)c2ccccc12`, the TGI in assay [1], in assay [2], in assay [3], in assay [4], in assay [5] and in assay [6] was above 100 µM each time. The TGI in assay [7] was 76.4 µM; in [8] it was above 100 µM; in [9], above 100 µM; in assay [10], above 100 µM; in [11], above 100 µM.

As for `COC(=O)/C=C1/OC(c2ccc(OC)cc2)=C(Cl)C1=O`, the TGI in assay [1] amounted to 35.4 µM; in [2], 41.1 µM; in assay [3], 26.2 µM; in assay [4] it was 26.3 µM; in assay [5], 66.5 µM; in [6], 27 µM. Further, the TGI came out at 31.7 µM in assay [7]; 31.8 µM in assay [8]; 25 µM in assay [9]; 28.1 µM in [10]; 56.4 µM in assay [11].

`Cc1nc2sccn2c1/C=C1/C(=O)Nc2cccc(Cl)c21`: the TGI in assay [1], in assay [2], in assay [3], in assay [4], in assay [5] and in assay [6] was above 100 µM throughout. In addition, the TGI in assay [7], in assay [8], in [9], in [10] and in [11] was above 100 µM throughout.

Take `COc1ccc(-c2oc3c(OC)c(OC)cc(O)c3c(=O)c2OC)cc1`: the TGI in [1], in assay [2], in assay [3], in assay [4], in assay [5] and in assay [6] was above 100 µM throughout. The TGI in [7], in assay [8], in assay [9], in assay [10] and in [11] was above 100 µM throughout.

Regarding `COc1cc(OC)c2[nH]c3c(O)c(-c4c(C)cc5c([nH]c6c(OC)cc(OC)cc65)c4O)c(C)cc3c2c1`, the TGI is 15.5 µM in [1]; 15.3 µM in assay [2]; 19.1 µM in assay [3]; 16.1 µM in [4]; 16.6 µM in assay [5]; 22.1 µM in [6]. Also, the TGI in assay [7] amounted to 16.8 µM; in assay [8] it was 15.8 µM; in [9], 18.9 µM; in [10], 20.3 µM; in assay [11], 13.3 µM. The figures for the GI50 in [6] and in assay [9] were 9.89 µM and 8.68 µM, respectively.

With `O=C(c1ccc(Cl)cc1)N(C(=S)OCCOc1ccccc1)c1ccccc1`, the TGI in assay [1] came to 32.4 µM; in [2], 35.2 µM; in assay [3], 75.6 µM; in assay [4], 52.3 µM; in assay [5] it was 76.3 µM; in assay [6], 41.2 µM. Further, the TGI in assay [7] worked out at 39.3 µM; in assay [8] it was 47.9 µM; in assay [9] it was 32.4 µM; in assay [10], 41.2 µM; in assay [11], 39.3 µM.

With `O=C1C(c2cnc3ccccc3n2)=C(O)c2ccccc21`, the TGI in assay [1], in [2], in assay [3], in [4], in [5] and in [6] was above 100 µM throughout. Also, the TGI was 36.1 µM in assay [7]; above 100 µM in assay [8]; above 100 µM in assay [9]; above 56.2 µM in assay [10]; above 100 µM in assay [11].

Take `CC(=O)OC(C)(C)CCC(=O)[C@](C)(O)[C@H]1[C@H](O)C[C@@]2(C)[C@@H]3CCc4c(cc(OC5OC(CO)C(O)C(O)C5O)c(O)c4C)C3(C)C(=O)C[C@]12C` (some centres undefined): the TGI in assay [1], in assay [2], in [3], in assay [4], in [5] and in assay [6] was above 100 µM in each case. The TGI in [7], in assay [8], in [9], in [10] and in [11] was above 100 µM throughout.

As for `CC(C)Oc1c(-c2ccc(F)cc2)c(O)c2c3c1oc(=O)n3C=CC2C` (centres undefined), the TGI in [1] was 28.5 µM; in [2] it was 26.2 µM; in assay [3] it was 28.7 µM; in assay [4], 28 µM; in assay [5], 29.3 µM; in assay [6], 27.5 µM. The TGI is 27.3 µM in assay [7]; 27.6 µM in assay [8]; 24.3 µM in assay [9]; 28.5 µM in assay [10]; 28 µM in [11].

For `C=C1C[C@H](O)[C@H](Br)C(C)(C)C12CCC(C)(Cl)C(Br)C2` (some centres undefined), the TGI amounted to 13.3 µM in assay [1]; 15.5 µM in assay [2]; 11.3 µM in [3]; 18.5 µM in assay [4]; 20.7 µM in assay [5]; 24.5 µM in [6]. The TGI in assay [7] came to 10.6 µM; in assay [8], 14.8 µM; in [9], 11.2 µM; in [10], 20.4 µM; in [11], 9.12 µM.

In the case of `CSc1nc2c(c(=O)[nH]1)N=C(c1ccccc1)CC(c1ccccc1)N2` (centres undefined), the TGI was above 100 µM in [1]; above 100 µM in assay [2]; 45.5 µM in assay [3]; above 100 µM in assay [4]; above 100 µM in [5]; above 100 µM in assay [6]. In addition, the TGI in [7] was 79.6 µM; in [8] it was 75.3 µM; in assay [9] it was 36 µM; in assay [10] it was above 100 µM; in assay [11], above 100 µM.

As for `N#Cc1c(-c2ccccc2)c(CN2CCCCC2)c(=O)n2c1[nH]c1ccccc12`, the TGI in [1], in [2], in assay [3], in assay [4], in [5] and in assay [6] was above 100 µM throughout. Moreover, the TGI in [7], in [8], in assay [9], in assay [10] and in [11] was above 100 µM each time.

As to `O=C(c1cc2c(c3ccccc13)NC1(CCCCC1)N=C2C(F)(F)F)C(F)(F)F`, the TGI in assay [1] was found to be 18.1 µM; in assay [2], 10.4 µM; in assay [3], 9.83 µM; in [4], 15.8 µM; in [5], 17 µM; in assay [6], 13.1 µM. Further, the TGI in [7] was found to be 12.7 µM; in assay [8], 13.8 µM; in [9], 12.2 µM; in assay [10], 18.7 µM; in [11] it was 16.3 µM.

`CC(=O)N(C(C)=O)c1cc2c3c(c1)CCCN3CCC2`: the TGI in assay [1], in assay [2], in assay [3], in assay [4], in [5] and in [6] was above 10 µM in each case. In addition, the TGI in assay [7], in assay [8], in [9], in assay [10] and in assay [11] was above 10 µM throughout.

With `CCOC(=O)/C=C(/C)Nc1nc2c(c(C(=O)OC)c1C#N)CCCC2`, the TGI in assay [1], in assay [2], in [3], in assay [4], in assay [5] and in assay [6] was above 100 µM in each case. Moreover, the TGI in [7], in assay [8], in [9], in assay [10] and in [11] was above 100 µM throughout.

As to `CC1(C)N=C(C2CCCN2C(=O)OCc2ccccc2)OC1=O` (centres undefined), the TGI in [1], in assay [2], in assay [3], in assay [4], in [5] and in [6] was above 100 µM each time. For the same molecule, the TGI in assay [7] is 85.1 µM; in assay [8], above 100 µM; in assay [9], above 100 µM; in assay [10], above 100 µM; in assay [11], above 100 µM.

With `CC1C(C#N)(C#N)C(C#N)=C(N)C1(Cl)[N+](=O)[O-]` (centres undefined), the TGI in assay [1] is 22.1 µM; in assay [2], 31.8 µM; in assay [3] it was 26.9 µM; in assay [4], 26.3 µM; in assay [5] it was 34.2 µM; in assay [6], 18.6 µM. Further, the TGI turned out to be 17.4 µM in assay [7]; 23.7 µM in assay [8]; 47.4 µM in assay [9]; 4.46 µM in assay [10]; 54.6 µM in [11].
